In DBAASP one finds MIC data, which are given here for five compounds.

Structures are written as SMILES. In brackets after ≈: the same amount, converted by molar mass. Several values for one entry are separate records, joined by “and”; a condition that tells them apart may be missing. Equal entries are not always repeated.

Some test systems named below: Acinetobacter baumannii; Escherichia coli K88; Escherichia coli K99; Escherichia coli UB1005; Escherichia coli; Klebsiella pneumoniae; Pseudomonas aeruginosa; Escherichia coli C600.
What all share (assay): ≥ marks a high value that may be exact or a test limit, other limits are often not marked, values filed in µg/mL are converted to µM
Assay [1] concerns Batrachochytrium dendrobatidis.
The subject of assay [2] is Candida albicans ATCC 90028.
Assay [3] deals with Escherichia coli ATCC 25922.
Assay [4] concerns Staphylococcus aureus NCTC 8325.
Assay [5] relates to Pseudomonas aeruginosa ATCC 27853.
For assay [6], the system named is Pseudomonas aeruginosa CICC 21625.
In assay [7] the test system is Pseudomonas aeruginosa CICC 21630.
For assay [8], the system named is Pseudomonas aeruginosa PAO1.
For assay [9], the system named is Salmonella enterica subsp. enterica serovar Pullorum C79-13.
In assay [10] the test system is Salmonella enterica subsp. enterica serovar Typhimurium ATCC 14028.
In assay [11] the test system is Salmonella enterica subsp. enterica serovar Typhimurium C77-31.
Assay [12] has as its system Staphylococcus aureus 209P.

`CC[C@H](C)[C@H](NC(=O)[C@H](CC(C)C)NC(=O)[C@@H]1CCCN1C(=O)[C@H](CC(C)C)NC(=O)[C@@H](N)Cc1ccccc1)C(=O)NCC(=O)N[C@@H](CCCCN)C(=O)N[C@H](C(=O)N[C@@H](CC(C)C)C(=O)NCC(=O)N[C@H](C(=O)N[C@H](C(=O)N[C@@H](CC(C)C)C(N)=O)[C@@H](C)CC)[C@@H](C)O)[C@@H](C)CC` [FLPLIGKILGTIL]: the MIC – broadly, the lowest concentration found to suppress growth – is ≥ 50 µM and 25 µM in [1]; at least 150 µM in assay [2]; 140 µM (≈ 196 µg/mL) in [3]; 5 µM (≈ 6.98 µg/mL) in assay [4].
With `CC[C@H](C)[C@H](N)C(=O)N[C@@H](CCCN=C(N)N)C(=O)N1CCC[C@H]1C(=O)N[C@H](C(=O)N[C@H](C(=O)N[C@@H](CCCN=C(N)N)C(=O)N1CCC[C@H]1C(=O)N[C@H](C(=O)N[C@H](C(=O)N[C@@H](CCCN=C(N)N)C(=O)N1CCC[C@H]1C(=O)N[C@H](C(=O)N[C@H](C(=O)N[C@@H](CCCN=C(N)N)C(=O)N1CCC[C@H]1C(=O)N[C@H](C(=O)N[C@H](C(=O)N[C@@H](CCCN=C(N)N)C(=O)N1CCC[C@H]1C(=O)N[C@H](C(=O)N[C@H](C(=O)N[C@@H](CCCN=C(N)N)C(=O)N1CCC[C@H]1C(=O)N[C@H](C(N)=O)[C@@H](C)CC)[C@@H](C)CC)[C@@H](C)CC)[C@@H](C)CC)[C@@H](C)CC)[C@@H](C)CC)[C@@H](C)CC)[C@@H](C)CC)[C@@H](C)CC)[C@@H](C)CC)[C@@H](C)CC` [IRPIIRPIIRPIIRPIIRPIIRPI], the minimal inhibitory concentration (MIC) was found to be 4 µM (≈ 11.6 µg/mL) in the assay on Acinetobacter baumannii; 2 µM (≈ 5.79 µg/mL) in [3]; 1 µM (≈ 2.89 µg/mL) against Escherichia coli K88; 2 µM (≈ 5.79 µg/mL) with Escherichia coli K99; 2 µM (≈ 5.79 µg/mL) in the assay with Escherichia coli UB1005; 2 µM (≈ 5.79 µg/mL) against Escherichia coli. The MIC against Klebsiella pneumoniae was 16 µM (≈ 46.3 µg/mL); in [5], 8 µM (≈ 23.2 µg/mL); in assay [6], at least 64 µM; in [7], at least 64 µM; in assay [8], 8 µM (≈ 23.2 µg/mL); against Pseudomonas aeruginosa, over 64 µM. Also, the MIC in assay [9], in assay [10] and in assay [11] was 4 µM (≈ 11.6 µg/mL) each time.
`CC(C)[C@@H]1NC(=O)[C@H](CCCN=C(N)N)NC(=O)[C@H](Cc2ccccc2)NC(=O)[C@@H](NC(=O)[C@H](Cc2c[nH]c3ccccc23)NC(=O)[C@@H](N)CCCCN)CSSC[C@@H](C(=O)N[C@@H](CCCN=C(N)N)C(=O)O)NC(=O)[C@H](CCCN=C(N)N)NC(=O)[C@H](CCCN=C(N)N)NC(=O)[C@H](Cc2ccc(O)cc2)NC(=O)[C@@H]2CSSC[C@H](NC1=O)C(=O)N[C@@H](Cc1ccc(O)cc1)C(=O)N[C@@H](CCCN=C(N)N)C(=O)NCC(=O)N[C@@H](CCCN=C(N)N)C(=O)N2` [KWCFRVCYRGRCYRRCR]: the minimal inhibitory concentration (MIC) against Escherichia coli C600 was 1.56 µM (≈ 3.6 µg/mL); in assay [8], 6.25 µM (≈ 14.4 µg/mL); in assay [12], 1.56 µM (≈ 3.6 µg/mL).
For the compound `CC(C)C[C@H](NC(=O)[C@@H]1CCCN1C(=O)[C@H](CCCCN)NC(=O)[C@H](CC(C)C)NC(=O)[C@H](CC(C)C)NC(=O)[C@@H]1CCCN1C(=O)[C@H](CCCCN)NC(=O)[C@H](CC(C)C)NC(=O)[C@H](CC(C)C)NC(=O)[C@@H]1CCCN1C(=O)[C@H](CCCCN)NC(=O)[C@H](CC(C)C)NC(=O)[C@H](CC(C)C)NC(=O)[C@@H]1CCCN1C(=O)[C@H](CCCCN)NC(=O)[C@H](CC(C)C)NC(=O)[C@H](CC(C)C)NC(=O)[C@@H]1CCCN1C(=O)[C@H](CCCCN)NC(=O)[C@@H](N)CC(C)C)C(N)=O` [LKPLLKPLLKPLLKPLLKPL], the minimal inhibitory concentration (MIC) against Acinetobacter baumannii was 4 µM (≈ 9.1 µg/mL); in assay [3], 2 µM (≈ 4.55 µg/mL); in the assay on Escherichia coli K88 it was 2 µM (≈ 4.55 µg/mL); in the assay on Escherichia coli K99 it was 2 µM (≈ 4.55 µg/mL); in the assay on Escherichia coli UB1005 it was 2 µM (≈ 4.55 µg/mL); in the assay with Escherichia coli, 4 µM (≈ 9.1 µg/mL). For the same compound, the MIC is 32 µM (≈ 72.8 µg/mL) in the assay on Klebsiella pneumoniae; 16 µM (≈ 36.4 µg/mL) in [5]; at least 64 µM in [6]; at least 32 µM in [7]; over 64 µM in [8]; 32 µM (≈ 72.8 µg/mL) with Pseudomonas aeruginosa. Also, the values for the minimal inhibitory concentration (MIC) in assay [9], in assay [10] and in [11] were 4 µM (≈ 9.1 µg/mL), 8 µM (≈ 18.2 µg/mL) and 16 µM (≈ 36.4 µg/mL), respectively.
`CC[C@H](C)[C@@H]1NC(=O)[C@H](CCCCN)NC(=O)[C@@H](NC(=O)[C@H](CCCCN)NC(=O)[C@H](CC(C)C)NC(=O)[C@H](CCCCN)NC(=O)[C@H](CC(=O)O)NC(=O)[C@H](CC(C)C)NC(=O)[C@H](CCSC)NC(=O)[C@H](Cc2cnc[nH]2)NC(=O)CNC(=O)[C@H](C)NC(=O)[C@H](CC(C)C)NC(=O)[C@H](CC(N)=O)NC(=O)[C@H](CCCCN)NC(=O)[C@H](C)NC(=O)[C@@H](NC(=O)[C@H](CC(N)=O)NC(=O)[C@H](CCCCN)NC(=O)[C@@H](NC(=O)[C@@H](NC(=O)[C@H](CC(=O)O)NC(=O)[C@H](CCSC)NC(=O)[C@@H](N)CC(C)C)[C@@H](C)O)C(C)C)C(C)C)CSSC[C@@H](C(=O)O)NC(=O)CNC(=O)[C@H]([C@@H](C)O)NC1=O` [LMDTVKNVAKNLAGHMLDKLKCKITGC]: the minimal inhibitory concentration (MIC) in assay [1] is at least 100 µM; in [2] it was at least 67 µM; in [3] it was 13 µM (≈ 38.3 µg/mL); in assay [4] it was at least 50 µM.
